We go through 4 compounds from patent EP0035641B1, “Cystein derivatives, process for their preparation and medicines containing them” (ALFA FARMACEUTICI S.p.A., priority 1980, dated 1981).

SMILES strings stand for the structures. Like-named read-outs stand apart in the source and are kept apart here.

The test system of one test is Carraghenin-Ödem. Put plainly: Carrageenan-induced oedema test in rats (method of Winter et al.). The class given is in vivo. The conditions noted are these: Ratten. From the text: Die entzündungshemmende Wirkung wurde an Hand des Versuches mit dem von Carraghenin hervorgerufenen beziehungsweise induzierten Ödem (Carraghenin-Ödem) an Ratten, welcher im wesentlichen nach der Verfahrensweise von C. A. Winter und Mitarbeitern, J. Pharm. Expt. Ther. […] durchgeführt wurde, bewertet. Die Ergebnisse dieser Versuche sind in der folgenden Tabelle I zusammengestellt.

The next test has as its system Granulome. Put plainly: Cotton pellet granuloma test (method of Meier et al.). The class given is in vivo. An excerpt:
Ein weiterer Nachweis der starken entzündungshemmenden Wirkung der erfindungsgemäßen Verbindungen erfolgte mit Hilfe des Granulomwattekügelchenversuches, welcher im wesentlichen wie von R. Meier und Mitarbeitern, Experientia, 6 [1950], 1469 beschrieben durchgeführt wurde. Bei diesem Versuch wurden Granuloma durch Einsetzen eines Wattekügelchens in den intraskapularen Bereich des Versuchtieres gebildet. Die Versuchsergebnisse sind in der folgenden Tabelle 11 zusammengestellt.

Test [1] relates to durch das Reizmittel hervorgerufene Unterleibsschmerzkrümmungen. Put plainly: Writhing test in mice (method of Wilkin et al.). The conditions noted are these: Mäuse; for ED50: Mus musculus, po, read-out: ED50 (Dosen, welche eine 50%ige Verminderung der Zusammenziehung herbeizuführen vermögen). The class given is in vivo, Mäusen. The method, then: Die schmerzlindernde Wirksamkeit wurde mit Hilfe des »Schmerzkrümmungsversuches« (»writhing test«) an Mäusen im wesentlichen nach der von Wilkin und Mitarbeitern in J. Pharm. Expt. Ther., 133 [1961 ], 409 beschriebenen Versuchsverfahrensweise bewertet. Repräsentative Versuche zeigten, daß die erfindungsgemäßen Verbindungen bei ihrer Verarbreichung in peroralen Dosen von etwa 30 bis 100 mg/kg gegenüber den Blindversuchen eine 50%ige Hemmung der durch das Reizmittel hervorgerufenen Unterleibsschmerzkrümmungen herbeiführten. Bei diesem Versuch zeigte sich, daß die schmerzlindernde Wirkung der erfindungsgemäßen Verbindung N-Acetyl-S-[D-2-(6'-methoxynaphth-2'-yl)-propionyl]-L-cystein (Verbindung der Beispiele 6 und 7) selbst 4 Stunden nach ihrer Verabreichung beträchtlich war.

On to `COC(=O)[C@H](CS)NC(=O)[C@@H](C)c1ccc2cc(OC)ccc2c1` [Beispiel 2, N-[D-2-(6'-Methoxynaphth-2'-yl)-propionyl]-L-cysteinmethylester], for which the “Hemmung des Carraghenin-Ödemes in %, bezogen auf die Blindversuche” value (from here on “Hemmung des Carraghenin-Ödemes in %”) in the test with Carraghenin-Ödem (Perorale Dosis 50 mg/kg) is given as −57%.

With `CCC1Cc2cc(CC(=O)N[C@@H](CS)C(=O)O)ccc2O1` (stereo partly drawn) [Beispiel 3, N-[2-(2'-Äthyl-2',3'-dihydrobenzofuran-5'-yl)-acetyl]-L-cystein], the “Hemmung des Granulomes in %, bezogen auf die Blindversuche” value (from here on “Hemmung des Granulomes in %”) in the test with Granulome (Perorale Dosis 40 mg/kg) is −30%. The “Hemmung des Carraghenin-Ödemes in %” value with Carraghenin-Ödem (Perorale Dosis 50 mg/kg) is listed as −48%.

For `COc1ccc2cc([C@H](C)C(=O)N[C@@H](CS)C(=O)O)ccc2c1` [Beispiel 4, N-[D-2-(6'-Methoxynaphth-2'-yl)-propionyl]-L-cystein], the figures for the “Hemmung des Granulomes in %” value in the test on Granulome (Perorale Dosis 40 mg/kg) and in the test with Granulome (Perorale Dosis 80 mg/kg) were −24% and −35%, respectively.

Regarding `COc1ccc2cc([C@H](C)C(=O)SC[C@H](NC(C)=O)C(=O)O)ccc2c1` [Beispiel 6 beziehungs-weise 7, N-Acetyl-S-[D-2-(6'-methoxynaphth-2'-yl)-propionyl]-L-cystein], the “schmerzlindernde Wirkung” value in test [1] (4 Stunden nach Verabreichung) is recorded as “beträchtlich”. For the same compound, the ED50 in test [1] (0.5 h, nach 30 Minuten) amounted to 25 mg/kg; in test [1] (4 h, nach 4 Stunden) it was 10 mg/kg. In addition, the “Hemmung des Granulomes in %” value was −28% in the test with Granulome (Perorale Dosis 40 mg/kg) and −49% in the test with Granulome (Perorale Dosis 80 mg/kg). Moreover, the “Hemmung des Carraghenin-Ödemes in %” value was −42% with Carraghenin-Ödem (Perorale Dosis 3 mg/kg), −42% with Carraghenin-Ödem (Perorale Dosis 6 mg/kg), −45% in the test on Carraghenin-Ödem (Perorale Dosis 12 mg/kg) and −58% with Carraghenin-Ödem (Perorale Dosis 24 mg/kg).
